This data set in a line: Net charge and isoelectric point of peptide. Conditions: pH 7. The data set is classed as physicochemical. From the text:
The peptide may be purified. For example, the peptide may be lyophilized. […] Other peptides are within the scope of the disclosure.
Exemplary peptides having a charge of +5 to +9 include […](d)[…], […](d)[…], and […](d)[…]. In other embodiments, the purified peptide may be substantially neutral. […] Net charge may be selected by peptide design. Design of electrostatic charge in the peptide hydrogel may allow control of charge interaction with cell membrane and proteins.

Among the data in patent US20240269067A1 (GEL4MED, INC., priority 2020, published 2024) are net charge values, retold here.

For VEVSVSVEV(d)PPTEVSVEVEV, the net charge result is given as “net negative charge”.
